Patent publication US20070049564A1 (Wyeth, priority 2005, published 2007)
Values after ≈ are worked out from the molar mass of the structure shown. Where two headings read alike, the source gives them in different places. Each block holds one compound with its values, some of them ahead of it.

Tests used:
E. faecium GC 4556 = assay: MIC, broth microdilution; settings: for MIC: Enterococcus faecium
S. pneumoniae* GC 4465 = assay: MIC, broth microdilution; settings: for MIC: Streptococcus pneumoniae
E. coli GC 2232 = assay: MIC, broth microdilution; settings: Escherichia coli
E. coli GC 4559 = assay: MIC, broth microdilution; settings: Escherichia coli
S. aureus GC 6335 = assay: MIC, broth microdilution; settings: for MIC: Staphylococcus aureus
E. coli GC 3226 = assay: MIC, broth microdilution; settings: Escherichia coli
S. typhimurium GC 2172 = assay: MIC, broth microdilution; settings: for MIC: Salmonella enterica, TYPHIMURIUM
E. coli GC 2235 = assay: MIC, broth microdilution; settings: Escherichia coli
E. coli GC 2203 = assay: MIC, broth microdilution; settings: Escherichia coli
E. coli GC 2271 = assay: MIC, broth microdilution; settings: Escherichia coli
S. aureus GC 6467 = assay: MIC, broth microdilution; settings: Staphylococcus aureus
E. coli GC 2231 = assay: MIC, broth microdilution; settings: Escherichia coli
E. faecalis GC 2267 = assay: MIC, broth microdilution; settings: for MIC: Enterococcus faecalis
P. aeruginosa GC 2214 = assay: MIC, broth microdilution; settings: Pseudomonas aeruginosa
E. coli GC 2270 = assay: MIC, broth microdilution; settings: Escherichia coli
S. agalactiae GC 4564 = assay: MIC, broth microdilution; settings: Streptococcus agalactiae
E. coli GC 4560 = assay: MIC, broth microdilution; settings: Escherichia coli
E. faecalis GC 2242 = assay: MIC, broth microdilution; settings: Enterococcus faecalis
S. aureus GC 2216 = assay: MIC, broth microdilution; settings: Staphylococcus aureus
Staph. aureus Smith = assay: In vivo activity (oral, iv; ED50) against Staph. aureus Smith in mice
[1] = GC4556, read-out: MINIMAL INHIBITORY CONCENTRATION MIC, pre-incubated in Mouse Serum
[2] = GC4556, read-out: MINIMAL INHIBITORY CONCENTRATION MIC, pre-incubated in Water
[3] = read-out: MINIMAL INHIBITORY CONCENTRATION MIC, pre-incubated in Mouse Serum
[4] = read-out: MINIMAL INHIBITORY CONCENTRATION MIC, pre-incubated in Water
[5] = GC2232, read-out: MINIMAL INHIBITORY CONCENTRATION MIC, pre-incubated in Water
[6] = GC4559, read-out: MINIMAL INHIBITORY CONCENTRATION MIC, pre-incubated in Water
[7] = GC6335, read-out: MINIMAL INHIBITORY CONCENTRATION MIC, pre-incubated in Mouse Serum
[8] = GC6335, read-out: MINIMAL INHIBITORY CONCENTRATION MIC, pre-incubated in Water
[9] = GC3226, read-out: MINIMAL INHIBITORY CONCENTRATION MIC, pre-incubated in Water
[10] = GC2235, read-out: MINIMAL INHIBITORY CONCENTRATION MIC, pre-incubated in Water
[11] = GC2203, read-out: MINIMAL INHIBITORY CONCENTRATION MIC, pre-incubated in Water
[12] = GC2271, read-out: MINIMAL INHIBITORY CONCENTRATION MIC, pre-incubated in Water
[13] = GC6467, read-out: MINIMAL INHIBITORY CONCENTRATION MIC, pre-incubated in Mouse Serum
[14] = GC6467, read-out: MINIMAL INHIBITORY CONCENTRATION MIC, pre-incubated in Water
[15] = GC2231, read-out: MINIMAL INHIBITORY CONCENTRATION MIC, pre-incubated in Water
[16] = GC2267, read-out: MINIMAL INHIBITORY CONCENTRATION MIC, pre-incubated in Mouse Serum
[17] = GC2267, read-out: MINIMAL INHIBITORY CONCENTRATION MIC, pre-incubated in Water
[18] = GC2214, read-out: MINIMAL INHIBITORY CONCENTRATION MIC, pre-incubated in Mouse Serum
[19] = GC2214, read-out: MINIMAL INHIBITORY CONCENTRATION MIC, pre-incubated in Water
[20] = GC2270, read-out: MINIMAL INHIBITORY CONCENTRATION MIC, pre-incubated in Water
[21] = GC4564, read-out: MINIMAL INHIBITORY CONCENTRATION MIC, pre-incubated in Water
[22] = GC4560, read-out: MINIMAL INHIBITORY CONCENTRATION MIC, pre-incubated in Water
[23] = GC2242, read-out: MINIMAL INHIBITORY CONCENTRATION MIC, pre-incubated in Mouse Serum
[24] = GC2242, read-out: MINIMAL INHIBITORY CONCENTRATION MIC, pre-incubated in Water
[25] = GC2216, read-out: MINIMAL INHIBITORY CONCENTRATION MIC, pre-incubated in Mouse Serum
[26] = GC2216, read-out: MINIMAL INHIBITORY CONCENTRATION MIC, pre-incubated in Water
[27] = Staphylococcus aureus, in Mus musculus, iv, read-out: ED50 SIV (Staph aureus Smith)
[28] = Staphylococcus aureus, in Mus musculus, po, read-out: ED50 SOD (Staph aureus Smith)
[29] = Staphylococcus aureus, in Mus musculus, po, read-out: ED50 Staph Smith SOD
[30] = iv, read-out: ED50 Staph Smith SIV

MIC (E. faecium GC 4556; [1]): 0.5 mg/L (≈ 0.62 µM)
MIC (E. faecium GC 4556; [2]): 32 mg/L (≈ 39.7 µM)
MIC (S. pneumoniae* GC 4465; [3]): < 0.06 mg/L
MIC (S. pneumoniae* GC 4465; [4]): < 0.06 mg/L
MIC (E. coli GC 2232; GC2232, read-out: MINIMAL INHIBITORY CONCENTRATION MIC, pre-incubated in Mouse Serum): 0.5 mg/L (≈ 0.62 µM)
MIC (E. coli GC 2232; [5]): > 64 mg/L
MIC (E. coli GC 4559; GC4559, read-out: MINIMAL INHIBITORY CONCENTRATION MIC, pre-incubated in Mouse Serum): 0.5 mg/L (≈ 0.62 µM)
MIC (E. coli GC 4559; [6]): > 64 mg/L
MIC (S. aureus GC 6335; [7]): 1 mg/L (≈ 1.24 µM)
MIC (S. aureus GC 6335; [8]): 16 mg/L (≈ 19.9 µM)
MIC (E. coli GC 3226; GC3226, read-out: MINIMAL INHIBITORY CONCENTRATION MIC, pre-incubated in Mouse Serum): 0.5 mg/L (≈ 0.62 µM)
MIC (E. coli GC 3226; [9]): > 64 mg/L
MIC (S. typhimurium GC 2172; [3]): 8 mg/L (≈ 9.93 µM)
MIC (S. typhimurium GC 2172; [4]): > 64 mg/L
MIC (E. coli GC 2235; GC2235, read-out: MINIMAL INHIBITORY CONCENTRATION MIC, pre-incubated in Mouse Serum): 0.5 mg/L (≈ 0.62 µM)
MIC (E. coli GC 2235; [10]): > 64 mg/L
MIC (E. coli GC 2203; GC2203, read-out: MINIMAL INHIBITORY CONCENTRATION MIC, pre-incubated in Mouse Serum): 0.5 mg/L (≈ 0.62 µM)
MIC (E. coli GC 2203; [11]): > 64 mg/L
MIC (E. coli GC 2271; GC2271, read-out: MINIMAL INHIBITORY CONCENTRATION MIC, pre-incubated in Mouse Serum): 0.25 mg/L (≈ 0.31 µM)
MIC (E. coli GC 2271; [12]): > 64 mg/L
MIC (S. aureus GC 6467; [13]): 4 mg/L (≈ 4.96 µM)
MIC (S. aureus GC 6467; [14]): 64 mg/L (≈ 79.4 µM)
MIC (E. coli GC 2231; GC2231, read-out: MINIMAL INHIBITORY CONCENTRATION MIC, pre-incubated in Mouse Serum): 1 mg/L (≈ 1.24 µM)
MIC (E. coli GC 2231; [15]): > 64 mg/L
MIC (E. faecalis GC 2267; [16]): 2 mg/L (≈ 2.48 µM)
MIC (E. faecalis GC 2267; [17]): 64 mg/L (≈ 79.4 µM)
MIC (P. aeruginosa GC 2214; [18]): 16 mg/L (≈ 19.9 µM)
MIC (P. aeruginosa GC 2214; [19]): > 64 mg/L
MIC (E. coli GC 2270; GC2270, read-out: MINIMAL INHIBITORY CONCENTRATION MIC, pre-incubated in Mouse Serum): 0.5 mg/L (≈ 0.62 µM)
MIC (E. coli GC 2270; [20]): > 64 mg/L
MIC (S. agalactiae GC 4564; GC4564, read-out: MINIMAL INHIBITORY CONCENTRATION MIC, pre-incubated in Mouse Serum): 0.25 mg/L (≈ 0.31 µM)
MIC (S. agalactiae GC 4564; [21]): 0.5 mg/L (≈ 0.62 µM)
MIC (E. coli GC 4560; GC4560, read-out: MINIMAL INHIBITORY CONCENTRATION MIC, pre-incubated in Mouse Serum): 0.25 mg/L (≈ 0.31 µM)
MIC (E. coli GC 4560; [22]): > 64 mg/L
MIC (E. faecalis GC 2242; [23]): 0.5 mg/L (≈ 0.62 µM)
MIC (E. faecalis GC 2242; [24]): 4 mg/L (≈ 4.96 µM)
MIC (S. aureus GC 2216; [25]): 0.5 mg/L (≈ 0.62 µM)
MIC (S. aureus GC 2216; [26]): 32 mg/L (≈ 39.7 µM)
SMILES: CCCN(CC(=O)Nc1cc(N(C)C)c2c(c1O)C(=O)C1=C(O)[C@]3(O)C(=O)C(C(N)=O)=C(O)[C@@H](N(C)C)[C@@H]3C[C@@H]1C2)C(=O)OCOC(=O)c1ccc(C(C)(C)C)cc1 [Example 28, ({[(2-{[(5aR,6aS,7S,10aS)-9-(aminocarbonyl)-4,7-bis(dimethylamino)-1,8,10a,11-tetrahydroxy-10,12-dioxo-5,5a,6,6a,7,10,10a,12-octahydrotetracen-2-yl]amino}-2-oxoethyl)(propyl)amino]carbonyl}oxy)methyl 4-tert-butylbenzoate]
ED50 (Staph. aureus Smith; [27]): 0.6 mg/kg
ED50 (Staph. aureus Smith; [28]): 6.61 mg/kg
ED50 (Staph. aureus Smith; [29]): 6.61 mg/kg
ED50 (Staph. aureus Smith; [30]): 0.6 mg/kg

MIC (E. faecium GC 4556; [1]): 2 mg/L (≈ 2.64 µM)
MIC (E. faecium GC 4556; [2]): 8 mg/L (≈ 10.6 µM)
MINIMAL INHIBITORY CONCENTRATION MIC (E. faecium GC 4556; pre-incubated in Mouse Serum): 4 UG/ML
MIC (S. pneumoniae* GC 4465; [3]): 2 mg/L (≈ 2.64 µM)
MIC (S. pneumoniae* GC 4465; [4]): 4 mg/L (≈ 5.28 µM)
MINIMAL INHIBITORY CONCENTRATION MIC (S. pneumoniae* GC 4465; pre-incubated in Mouse Serum): 4 UG/ML
MIC (E. coli GC 2232; [5]): > 64 mg/L
MIC (E. coli GC 4559; [6]): > 64 mg/L
MIC (S. aureus GC 6335; [7]): 2 mg/L (≈ 2.64 µM)
MIC (S. aureus GC 6335; [8]): 4 mg/L (≈ 5.28 µM)
MINIMAL INHIBITORY CONCENTRATION MIC (S. aureus GC 6335; pre-incubated in Mouse Serum): 4 UG/ML
MIC (E. coli GC 3226; [9]): > 64 mg/L
MIC (S. typhimurium GC 2172; [3]): 64 mg/L (≈ 84.5 µM)
MIC (S. typhimurium GC 2172; [4]): > 64 mg/L
MINIMAL INHIBITORY CONCENTRATION MIC (S. typhimurium GC 2172; pre-incubated in Mouse Serum): >64 UG/ML
MIC (E. coli GC 2235; [10]): > 64 mg/L
MIC (E. coli GC 2203; [11]): > 64 mg/L
MIC (E. coli GC 2271; [12]): > 64 mg/L
MIC (S. aureus GC 6467; [13]): 4 mg/L (≈ 5.28 µM)
MIC (S. aureus GC 6467; [14]): 8 mg/L (≈ 10.6 µM)
MIC (E. coli GC 2231; [15]): > 64 mg/L
MIC (E. faecalis GC 2267; [16]): 2 mg/L (≈ 2.64 µM)
MIC (E. faecalis GC 2267; [17]): 4 mg/L (≈ 5.28 µM)
MINIMAL INHIBITORY CONCENTRATION MIC (E. faecalis GC 2267; pre-incubated in Mouse Serum): 4 UG/ML
MIC (P. aeruginosa GC 2214; [18]): > 64 mg/L
MIC (P. aeruginosa GC 2214; [19]): > 64 mg/L
MIC (E. coli GC 2270; [20]): > 64 mg/L
MIC (S. agalactiae GC 4564; [21]): 8 mg/L (≈ 10.6 µM)
MIC (E. coli GC 4560; [22]): 8 mg/L (≈ 10.6 µM)
MIC (E. faecalis GC 2242; [23]): 4 mg/L (≈ 5.28 µM)
MIC (E. faecalis GC 2242; [24]): 8 mg/L (≈ 10.6 µM)
MIC (S. aureus GC 2216; [25]): 2 mg/L (≈ 2.64 µM)
MIC (S. aureus GC 2216; [26]): 4 mg/L (≈ 5.28 µM)
SMILES: CN(C)c1cc(NC(=O)CN(C(=O)OCOC(=O)CC(C)(C)C)C(C)(C)C)c(O)c2c1C[C@H]1C[C@H]3[C@H](N(C)C)C(O)=C(C(N)=O)C(=O)[C@@]3(O)C(O)=C1C2=O [Example 42, ({[(2-{[(5aR,6aS,7S,10aS)-9-(aminocarbonyl)-4,7-bis(dimethylamino)-1,8,10a,11-tetrahydroxy-10,12-dioxo-5,5a,6,6a,7,10,10a,12-octahydrotetracen-2-yl]amino}-2-oxoethyl)(tert-butyl)amino]carbonyl}oxy)methyl 3,3-dimethylbutanoate]
ED50 (Staph. aureus Smith; [27]): 1.43 mg/kg
ED50 (Staph. aureus Smith; [28]): 5.68 mg/kg
ED50 (Staph. aureus Smith; [29]): 5.68 mg/kg
ED50 (Staph. aureus Smith; [30]): 1.43 mg/kg
